Results on seven compounds are retold here after patent publication US20110288086A1, “POLYCYCLIC QUINAZOLINES, PREPARATION THEREOF, AND USE THEREOF” (priority 2010, published 2011).

For experiment [1], the system named is K562 human chronicity marrow leukemic cells. Briefly: Tumor cell inhibition ratio, CCK-8 kit, K562. To be noted: K562, read-out: Antiproliferative effect (inhibition ratio) K562. (Tetrazolium assays rely on reduction of a dye to a coloured formazan, in cell work by metabolically active cells.)
Text: (§1) The inhibitory activities of the compounds on tumor cells in vitro
The test system of experiment [2] is PANC-1 human pancreatic cancer cells. As to the kind of experiment: Tumor cell inhibition ratio, CCK-8 kit, PANC-1. The settings on record: PANC-1, read-out: Antiproliferative effect (inhibition ratio) PANC-1.
Text: as §1
A further experiment addresses T1, aurora kinase B (Homo sapiens, UniProt Q96GD4).
T1 construct: purchased Invitrogen PV3174
As to the kind of experiment: Aurora kinase B inhibition in vitro (Invitrogen aurora kinase screening kit PV3174). The experiment is classed as biochemical.

The test system of experiment [3] is PC-3 human carcinoma of prostate. As to the kind of experiment: Tumor cell inhibition ratio, CCK-8 kit, PC-3. The settings on record: read-out: Antiproliferative effect (inhibition ratio) PC-3.
Text: as §1
The test system of experiment [4] is MDA-MB-435s human breast carcinoma cells. Briefly: Tumor cell inhibition ratio, CCK-8 kit, MDA-MB-435s. To be noted: read-out: Antiproliferative effect (inhibition ratio) 435s.
Text: as §1
Experiment [5] relates to Hut78 T-Lymphocytic Leukemia cells. As to the kind of experiment: Tumor cell inhibition ratio, CCK-8 kit, Hut78. To be noted: Homo sapiens, HuT78, read-out: Antiproliferative effect (inhibition ratio) Hut-78.
Text: as §1
In another experiment the target is EGFR tyrosine kinase (Homo sapiens, UniProt P00533). As to the kind of experiment: EGFR tyrosine kinase inhibition in vitro (Invitrogen EGFR inhibitor screening kit PV3193).
Chain of EGFR tyrosine kinase (P00533 25-1210): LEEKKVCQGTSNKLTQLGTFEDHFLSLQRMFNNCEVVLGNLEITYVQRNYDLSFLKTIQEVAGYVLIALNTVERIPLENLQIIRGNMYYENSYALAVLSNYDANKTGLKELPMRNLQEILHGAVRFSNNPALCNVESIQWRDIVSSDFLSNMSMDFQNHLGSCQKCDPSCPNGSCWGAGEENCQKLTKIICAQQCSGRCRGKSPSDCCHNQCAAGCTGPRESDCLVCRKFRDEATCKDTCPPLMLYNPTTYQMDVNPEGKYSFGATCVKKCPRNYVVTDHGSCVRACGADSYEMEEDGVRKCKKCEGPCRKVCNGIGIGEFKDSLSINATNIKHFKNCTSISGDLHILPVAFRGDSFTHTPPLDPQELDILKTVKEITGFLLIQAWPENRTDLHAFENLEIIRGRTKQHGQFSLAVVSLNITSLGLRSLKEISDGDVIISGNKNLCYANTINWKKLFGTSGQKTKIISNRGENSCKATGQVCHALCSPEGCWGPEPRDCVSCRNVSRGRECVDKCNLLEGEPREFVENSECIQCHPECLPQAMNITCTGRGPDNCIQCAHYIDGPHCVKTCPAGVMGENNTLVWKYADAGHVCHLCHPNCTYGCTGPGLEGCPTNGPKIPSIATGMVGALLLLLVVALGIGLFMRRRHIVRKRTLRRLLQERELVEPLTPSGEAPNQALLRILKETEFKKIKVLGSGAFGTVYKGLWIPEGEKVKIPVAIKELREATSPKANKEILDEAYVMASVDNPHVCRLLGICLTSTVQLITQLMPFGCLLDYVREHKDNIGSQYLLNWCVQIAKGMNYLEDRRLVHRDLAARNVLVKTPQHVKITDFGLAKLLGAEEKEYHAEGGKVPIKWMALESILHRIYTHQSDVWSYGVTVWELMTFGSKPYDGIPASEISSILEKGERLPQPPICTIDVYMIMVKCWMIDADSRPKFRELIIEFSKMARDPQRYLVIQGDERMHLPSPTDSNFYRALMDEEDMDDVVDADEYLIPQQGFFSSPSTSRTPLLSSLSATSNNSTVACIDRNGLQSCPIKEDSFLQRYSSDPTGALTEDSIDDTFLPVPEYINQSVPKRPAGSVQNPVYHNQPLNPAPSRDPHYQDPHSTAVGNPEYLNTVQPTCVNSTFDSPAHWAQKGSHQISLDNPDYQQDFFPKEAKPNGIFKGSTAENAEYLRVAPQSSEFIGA
Experiment [6] relates to A549 human lung cancer cells. As to the kind of experiment: Tumor cell inhibition ratio, CCK-8 kit, A549. To be noted: A549, read-out: Antiproliferative effect (inhibition ratio) A549.
Text: as §1
Experiment [7] relates to Jurkat E6-1 human T-cell lymphoma. As to the kind of experiment: Tumor cell inhibition ratio, CCK-8 kit, Jurkat E6-1. To be noted: Jurkat E6.1, read-out: Antiproliferative effect (inhibition ratio) E6-1.
Text: as §1
Experiment [8] has as its system Hep3B2.1-7 human hepatoma carcinoma cells. As to the kind of experiment: Tumor cell inhibition ratio, CCK-8 kit, Hep3B. To be noted: read-out: Antiproliferative effect (inhibition ratio) Hep3B.
Text: as §1
The subject of experiment [9] is Colo320 human rectal cancer cells. Briefly: Tumor cell inhibition ratio, CCK-8 kit, Colo320. The settings on record: COLO 320, read-out: Antiproliferative effect (inhibition ratio) Colo320.
Text: as §1

Structures can show the parent of a compound that is named as a salt.

T1 sequence (Q96GD4 whole entry): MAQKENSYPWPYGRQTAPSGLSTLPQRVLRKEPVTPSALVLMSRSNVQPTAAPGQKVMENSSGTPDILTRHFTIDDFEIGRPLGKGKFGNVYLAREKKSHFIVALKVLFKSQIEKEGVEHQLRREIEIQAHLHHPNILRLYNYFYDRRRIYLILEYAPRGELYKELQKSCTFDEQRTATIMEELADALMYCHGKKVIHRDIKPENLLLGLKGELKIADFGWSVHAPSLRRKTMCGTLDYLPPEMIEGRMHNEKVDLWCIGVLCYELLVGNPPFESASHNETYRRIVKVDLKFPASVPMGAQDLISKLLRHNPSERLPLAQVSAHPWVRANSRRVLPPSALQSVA
Text for EGFR tyrosine kinase: The inhibitory activities of EGFR tyrosine kinase in vitro
Erlotinib hydrochloride was used as a positive control drug.

For the compound `COCCOc1cc2c(cc1OCCOC)C1=Nc3cccc(F)c3CN1C=N2` [Compound V-3, 9-fluoro-2,3-bis(2-methoxyethoxy)-8H-quinazolino[4,3-b]quinazoline mesylate], the inhibition at 10 µM was found to be 43.1% in experiment [1]; 30.9% in experiment [2]; 34% in experiment [3]; 3.38% in experiment [4]; 44.1% in experiment [5]; 44.6% in experiment [6]. Further, the inhibition at 10 µM in experiment [7] was found to be 42%; in experiment [8] it was 42.3%; in experiment [9] it was 34.8%. Besides, the inhibition at 100 µM stood at 88.8% in experiment [1]; 75.4% in experiment [2]; 87% in experiment [3]; 84.1% in experiment [4]; 84.1% in [5]; 76.2% in [6]. In addition, the values for the inhibition at 100 µM in experiment [7], in [8] and in experiment [9] were 78%, 80.7% and 79%, respectively. Further, the “The inhibition ratio of the compound on Aurora B(%)” value is recorded as 39.5% on aurora kinase B (40 μM) and 83.6% on aurora kinase B (200 μM). Moreover, the “The inhibition ratio of the compound on EGFR(%)” value on EGFR tyrosine kinase (40 μM) was found to be 49.5%; on EGFR tyrosine kinase (200 μM), 81.6%.

For the compound `COCCOc1cc2c(cc1OCCOC)C1=Nc3ccc(OCc4cccc(F)c4)c(Cl)c3CN1C=N2` [Compound V-14, 9-chloro-10-(3-fluoro-benzyloxy)-2,3-bis(2-methoxyethoxy)-8H-quinazolino[4,3-b]quinazoline], the inhibition at 10 µM in experiment [1] was 36.6%; in [2], 38.3%; in experiment [3] it was 38.5%; in [4], 46.6%; in experiment [5], 21.3%; in experiment [6], 31.1%. Also, the inhibition at 10 µM was determined as 26.9% in experiment [7], 45.1% in experiment [8] and 17.6% in [9]. In addition, the inhibition at 100 µM in [1] was 100%; in experiment [2] it was 99.9%; in experiment [3], 97.1%; in experiment [4], 94.8%; in experiment [5] it was 98.7%; in [6] it was 97.8%. Besides, the inhibition at 100 µM in experiment [7] is 97.7%; in [8], 100%; in experiment [9], 88%. Besides, the entries for the “The inhibition ratio of the compound on Aurora B(%)” value on aurora kinase B (40 μM) and at aurora kinase B (200 μM) were 23.2% and 76.9%, respectively. For the same compound, the “The inhibition ratio of the compound on EGFR(%)” value on EGFR tyrosine kinase (40 μM) is reported as 45.2%; on EGFR tyrosine kinase (200 μM), 87.9%.

On to `C#Cc1cccc2c1CN1C=Nc3cc(OC)c(OC)cc3C1=N2` [Compound V-31, 9-ethynyl-2,3-dimethoxy-8H-quinazolino[4,3-b]quinazoline], for which the inhibition at 10 µM in experiment [1] was found to be 37.5%; in experiment [2], 46.5%; in experiment [3], 29.4%; in experiment [4] it was 50.6%; in experiment [5], 41.1%; in experiment [6] it was 28.8%. The inhibition at 10 µM turned out to be 21.8% in experiment [7], 31.9% in experiment [8] and 30.8% in [9]. Moreover, the inhibition at 100 µM in experiment [1] turned out to be 85%; in experiment [2] it was 96.4%; in experiment [3], 81.7%; in experiment [4], 85.1%; in experiment [5], 72.2%; in experiment [6] it was 32.8%. Moreover, the results for the inhibition at 100 µM in experiment [7], in experiment [8] and in experiment [9] were 84.2%, 62.2% and 92.8%, respectively. Besides, the “The inhibition ratio of the compound on Aurora B(%)” value at aurora kinase B (40 μM) was found to be 10.6%; on aurora kinase B (200 μM), 66.5%. For the same compound, the “The inhibition ratio of the compound on EGFR(%)” value on EGFR tyrosine kinase (40 μM) stood at 30.6%; at EGFR tyrosine kinase (200 μM), 76.5%.

On to `COCCOc1cc2c(cc1OCCOC)C1=Nc3cc(O)ccc3CN1C=N2` [Compound V-18, 11-hydroxy-2,3-bis(2-methoxyethoxy)-8H-quinazolino[4,3-b]quinazoline], for which the inhibition at 10 µM came out at 10.4% in [1]; 30% in experiment [2]; 37% in experiment [3]; 36.6% in [4]; 19.7% in [5]; 37.8% in [6]. Also, the results for the inhibition at 10 µM in experiment [7], in [8] and in [9] were 44.1%, 40.1% and 38.1%, respectively. The inhibition at 100 µM in [1] was 59%; in [2] it was 84.4%; in experiment [3] it was 76.2%; in experiment [4], 72.3%; in experiment [5] it was 65.2%; in experiment [6], 78.6%. Moreover, the inhibition at 100 µM in [7] was 84%; in experiment [8] it was 77.5%; in experiment [9], 75.1%. The entries for the “The inhibition ratio of the compound on Aurora B(%)” value at aurora kinase B (40 μM) and at aurora kinase B (200 μM) were 23.2% and 76.9%, respectively. The “The inhibition ratio of the compound on EGFR(%)” value at EGFR tyrosine kinase (40 μM) came to 33.2%; at EGFR tyrosine kinase (200 μM), 78.8%.

With `COCCOc1cc2c(cc1OCCOC)C1=Nc3cccc([N+](=O)[O-])c3CN1C=N2` [Compound V-5, 9-nitro-2,3-bis(2-methoxyethoxy)-8H-quinazolino[4,3-b]quinazoline], the inhibition at 10 µM came out at 23.6% in [1]; 17.1% in experiment [2]; 32.5% in experiment [3]; 48.9% in [4]; 43.8% in experiment [5]; 59.8% in [6]. Besides, the values for the inhibition at 10 µM in [7], in [8] and in experiment [9] were 34.8%, 22.3% and 51.7%, respectively. For the same compound, the inhibition at 100 µM in experiment [1] turned out to be 78.3%; in experiment [2] it was 80.3%; in experiment [3], 63.6%; in experiment [4], 87.2%; in experiment [5], 63.5%; in [6] it was 92.5%. Also, the values for the inhibition at 100 µM in [7], in experiment [8] and in experiment [9] were 78.9%, 54.4% and 84.9%, respectively. The “The inhibition ratio of the compound on Aurora B(%)” value at aurora kinase B (40 μM) is 35.1%; at aurora kinase B (200 μM) it was 74.6%. Moreover, the “The inhibition ratio of the compound on EGFR(%)” value amounted to 25.2% on EGFR tyrosine kinase (40 μM) and 74.6% on EGFR tyrosine kinase (200 μM).

For the compound `COCCOc1cc2c(cc1OCCOC)C1=Nc3cccc(C(F)(F)F)c3CN1C=N2` [Compound V-9, 9-trifluoromethyl-2,3-bis(2-methoxyethoxy)-8H-quinazolino[4,3-b]quinazoline], the inhibition at 10 µM in [1] amounted to 34.6%; in [2], 11.7%; in [3], 16.4%; in [4], 54.9%; in [5], 19.2%; in experiment [6], 33.7%. In addition, the inhibition at 10 µM in experiment [7] turned out to be 20.4%; in experiment [8], 40.1%; in experiment [9], 46.3%. Besides, the inhibition at 100 µM amounted to 79.9% in experiment [1]; 55.6% in [2]; 78% in experiment [3]; 80.7% in experiment [4]; 70.5% in experiment [5]; 87.5% in experiment [6]. Besides, the inhibition at 100 µM in experiment [7] amounted to 65.4%; in experiment [8], 82.8%; in experiment [9], 73.3%. Also, the “The inhibition ratio of the compound on Aurora B(%)” value at aurora kinase B (40 μM) worked out at 17.6%; on aurora kinase B (200 μM) it was 60.5%. Also, the “The inhibition ratio of the compound on EGFR(%)” value came to 13.0% on EGFR tyrosine kinase (40 μM) and 60.3% at EGFR tyrosine kinase (200 μM).

As to `COCCOc1cc2c(cc1OCCOC)C1=Nc3cc(F)ccc3CN1C=N2` [Compound V-16, 11-fluoro-2,3-bis(2-methoxyethoxy)-8H-quinazolino[4,3-b]quinazoline], the inhibition at 10 µM in experiment [1] turned out to be 53.6%; in [2], 22.4%; in [3] it was 53.5%; in experiment [4], 48.9%; in [5], 44.3%; in [6], 50.7%. Moreover, the inhibition at 10 µM in [7] was determined as 56.6%; in experiment [8], 30.3%; in experiment [9] it was 52.7%. Also, the inhibition at 100 µM in experiment [1] came out at 93.8%; in experiment [2], 99.9%; in experiment [3] it was 98.9%; in experiment [4], 66.2%; in experiment [5], 99.6%; in experiment [6] it was 70.2%. Further, the figures for the inhibition at 100 µM in [7], in experiment [8] and in experiment [9] were 97.3%, 74.6% and 99.4%, respectively. The figures for the “The inhibition ratio of the compound on Aurora B(%)” value on aurora kinase B (40 μM) and at aurora kinase B (200 μM) were 21.5% and 78.1%, respectively. In addition, the “The inhibition ratio of the compound on EGFR(%)” value on EGFR tyrosine kinase (40 μM) was found to be 21.7%; on EGFR tyrosine kinase (200 μM) it was 80.1%.
